Data taken from publication PMC11460632, “Chemical modification of hyaluronan oligosaccharides differentially modulates hyaluronan–hyaladherin interactions” (The Journal of Biological Chemistry, 2024).
“Also recorded” adds a separate entry of the source. Read-outs that look alike come from different tables or passages of the source.

How the values were obtained:
Link_TSG6 = target: T1, Link_TSG6 (Homo sapiens, UniProt P98066); assay: ITC of HA oligosaccharides binding to Link_TSG6; details: for N: 0.029 mM Link_TSG6, 0.29 mM oligosaccharide
T1 construct: made in house
Description: ITC experiments were performed using a MicroCal PEAQ-ITC instrument (Malvern Instruments). Oligosaccharide stock solutions were prepared at 0.29 mM (in 5 mM MES, pH 6.0) and injected (18 × 2 μl with 120 s spacing between injections) into the cell containing ∼200 μl Link_TSG6 (0.029 mM) in matched buffer at 25 °C. Data were fit to a one site binding model, after subtracting the heats from the last three injections to account for heat of dilution of the oligosaccharide into buffer. Each oligosaccharide was analyzed in four independently performed ITC experiments.

hisCD44_HABD^20–169 = target: T2, hisCD44_HABD^20–169 (Homo sapiens, UniProt P16070); assay: MST of HA oligosaccharides binding to hisCD44_HABD^20–169; details: for Kd: 10 mM Hepes pH 7.5, 150 mM NaCl, 0.05% Tween-20, 25 °C, three titrations, read-out: KD; for % Binding affinity hisCD44_HABD^20–169: Table 6, relative to unmodified oligosaccharide of the same length, by MST
T2 construct: A novel construct consisting of residues 20 to 169 of human CD44 and an N-terminal six-histidine tag; made in house
Description: For hisCD44_HABD^20–169, interactions with HA oligosaccharides were assessed using MST. Protein (200 nM) was labeled with 5 μM red-Tris-NTA-650 dye following the manufacturer’s instructions in 10 mM Hepes, pH 7.4, 150 mM NaCl, 0.05% (v/v) Tween-20 (interaction buffer). Stock solutions of HA oligosaccharides (5 mM in interaction buffer) were serially diluted (1:1 in interaction buffer) 16 times before each concentration was mixed with an equal volume of labeled protein (10 nM final concentration hisCD44_HABD^20–169). Samples were loaded into standard glass capillaries (NanoTemper) and thermophoresis measured at 25 °C (with active temperature control) using a Monolith NT.115pico instrument (NanoTemper) running NT Control software (version 1.0.1). All experiments were performed in triplicate and data analyzed with the “KD fit model” in the NT Analysis software (version 2.0.2).

recombinant human TSG-6 = target: T3, recombinant human TSG-6 (Homo sapiens, UniProt P19827+P98066); assay: In vitro HC-transfer assay (IαI + rhTSG-6, Western blot anti-HC1); type: biochemical; details: 15 μM HA, 1.8 μM IαI, rhTSG-6, 2 h at 37 °C; for Substrate for HC transfer: Table 6; for Activity as substrate for HC transfer (text): Western blot anti-HC1
T3 construct: TSG-6–mediated HC-transfer assays (using full-length TSG6); purchased R&D Systems
Description: Covalent transfer of HC from IαI onto unmodified and chemically modified HA oligosaccharides was analyzed using the assay described previously ([26]). All reactions were performed using a buffer of 20 mM Hepes, pH 7.5, 150 mM NaCl, and 5 mM MgCl2. In a “standard” assay, HA oligosaccharides were at 15 μM, human IαI ([97]) 1.8 at μM (based on a molecular weight of 180 kDa), and recombinant human TSG-6 (R&D Systems) at 2.8 μM (based on a molecular weight of 35 kDa). Reaction mixtures were analyzed by SDS-PAGE using 4 to 12% bis-tris polyacrylamide gels (Invitrogen). For Western blot analysis, proteins were transferred onto nitrocellulose membrane (GE Healthcare) and incubated with antisera against HC1 (CP7, 1:10,000; ([98])). Bound primary antibody was detected using goat-anti-rabbit IgG conjugated to IR dye (LI-COR Biosciences) and blots imaged using an Odyssey Clx near-IR fluorescence imaging system (LICOR Biosciences).

[1] = Table 4, ITC, 25 °C, 5 mM MES pH 6.0, mean ± SEM
[2] = Table 1, ITC, 25 °C, 5 mM MES pH 6.0, mean ± SEM, four titrations
[3] = Table 1, ITC, 25 °C, 5 mM MES pH 6.0, mean ± SEM

T3 sequence (P98066 18-277): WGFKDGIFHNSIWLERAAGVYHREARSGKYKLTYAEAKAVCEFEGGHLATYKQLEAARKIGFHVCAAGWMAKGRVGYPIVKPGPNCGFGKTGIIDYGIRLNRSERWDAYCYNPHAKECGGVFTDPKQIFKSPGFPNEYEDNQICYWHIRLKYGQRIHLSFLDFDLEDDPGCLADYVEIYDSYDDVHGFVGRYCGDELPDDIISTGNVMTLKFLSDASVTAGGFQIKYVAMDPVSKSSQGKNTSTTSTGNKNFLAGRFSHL
T3 sequence (P19827 35-672 limits assumed): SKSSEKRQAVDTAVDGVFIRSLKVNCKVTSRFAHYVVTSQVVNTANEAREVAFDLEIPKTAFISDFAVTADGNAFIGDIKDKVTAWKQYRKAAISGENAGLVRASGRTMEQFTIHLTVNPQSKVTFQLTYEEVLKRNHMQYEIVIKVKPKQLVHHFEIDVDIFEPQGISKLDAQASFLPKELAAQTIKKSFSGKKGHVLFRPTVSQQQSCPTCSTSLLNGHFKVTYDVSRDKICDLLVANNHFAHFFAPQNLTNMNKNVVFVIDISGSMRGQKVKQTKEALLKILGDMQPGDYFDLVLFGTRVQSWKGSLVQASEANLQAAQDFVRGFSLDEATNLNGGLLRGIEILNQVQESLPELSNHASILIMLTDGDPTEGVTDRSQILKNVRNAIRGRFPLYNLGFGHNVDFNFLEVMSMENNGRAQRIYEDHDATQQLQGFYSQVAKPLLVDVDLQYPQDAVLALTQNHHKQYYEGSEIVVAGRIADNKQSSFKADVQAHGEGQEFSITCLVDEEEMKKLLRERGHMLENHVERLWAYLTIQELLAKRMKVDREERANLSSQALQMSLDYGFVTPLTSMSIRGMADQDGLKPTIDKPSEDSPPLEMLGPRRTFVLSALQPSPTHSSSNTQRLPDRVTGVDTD
T2 sequence (P16070 20-169): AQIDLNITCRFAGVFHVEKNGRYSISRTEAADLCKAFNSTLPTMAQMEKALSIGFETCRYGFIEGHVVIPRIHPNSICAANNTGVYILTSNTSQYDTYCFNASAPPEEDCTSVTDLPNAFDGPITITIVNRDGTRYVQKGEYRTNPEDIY
T1 sequence (P98066 36-129 limits assumed): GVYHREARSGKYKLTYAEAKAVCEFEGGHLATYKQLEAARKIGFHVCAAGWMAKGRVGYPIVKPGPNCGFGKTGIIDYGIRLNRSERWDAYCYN

Row | Structure (SMILES) | Substrate for HC transfer (recombinant human TSG-6) | Activity as substrate for HC transfer (text) (recombinant human TSG-6) | N (Link_TSG6; [2]) | ΔG (Link_TSG6; [3]) [kcal/mol] | ΔH (Link_TSG6; [3]) [kcal/mol] | −TΔS (Link_TSG6; [3]) [kcal/mol] | other results
1 | CC(=O)N[C@H]1[C@H](O[C@H]2[C@H](O)[C@@H](O)[C@H](O[C@H]3[C@H](O)[C@@H](CO)O[C@@H](O[C@H]4[C@H](O)[C@@H](O)[C@H](O[C@@H]([C@H](O)[C@H](O)CO)[C@H](CNc5cccc6c5CCC6)NC(C)=O)O[C@@H]4C(=O)O)[C@@H]3NC(C)=O)O[C@@H]2C(=O)O)O[C@H](CO)[C@@H](O)[C@@H]1O[C@@H]1O[C@H](C(=O)O)[C@@H](O)[C@H](O)[C@H]1O [HA6-4AI] | No | No HC•HA6 complexes were observed |  |  |  |  | N (Link_TSG6; Table 4, ITC, 25 °C, 5 mM MES pH 6.0, mean ± SEM, four titrations): 0.97 ± 0.03; ΔG (Link_TSG6; [1]): -7.98 ± 0.03 kcal/mol; ΔH (Link_TSG6; [1]): -7.16 ± 0.32 kcal/mol; −TΔS (Link_TSG6; [1]): −0.82 ± 0.30 kcal•mol^a1; Kd (Link_TSG6; Table 4, ITC, 25 °C, 5 mM MES pH 6.0, mean ± SEM, four titrations, read-out: KD): 1.42 ± 0.06 µM; % Binding affinity Link_TSG6 (Link_TSG6; Table 6, relative to unmodified oligosaccharide of the same length, by ITC): 77%; % of binding to hisCD44_HABD^20–169 compared to the unmodified oligosaccharide of the same length (hisCD44_HABD^20–169; MST): 28%; % HAx^AN: percentage of binding affinity (KB) compared to the unmodified oligosaccharide of the same length (hisCD44_HABD^20–169; Table 5, MST): 28%; Kd (hisCD44_HABD^20–169; Table 5, MST, mean ± SD): 369 ± 43 µM; % Binding affinity hisCD44_HABD^20–169 (hisCD44_HABD^20–169): 28%
2 | CC(=O)N[C@H]1[C@H](O[C@H]2[C@H](O)[C@@H](O)[C@H](O[C@H]3[C@H](O)[C@@H](CO)O[C@@H](O[C@H]4[C@H](O)[C@@H](O)[C@H](O[C@@H]([C@H](O)[C@H](O)CO)[C@H](CNc5cccc(C(=O)O)c5)NC(C)=O)O[C@@H]4C(=O)O)[C@@H]3NC(C)=O)O[C@@H]2C(=O)O)O[C@H](CO)[C@@H](O)[C@@H]1O[C@@H]1O[C@H](C(=O)O)[C@@H](O)[C@H](O)[C@H]1O [HA6-3AA] | No | No HC•HA6 complexes were observed | 1.05 ± 0.02 | -8.61 ± 0.10 | -6.30 ± 0.11 | -2.21 ± 0.83 | Activity as substrate for HC transfer (text) (recombinant human TSG-6; listed as HA63AA): could become covalently coupled to an HC
3 | CC(=O)N[C@H]1[C@H](O[C@H]2[C@H](O)[C@@H](O)[C@H](O[C@H]3[C@H](O)[C@@H](CO)O[C@@H](O[C@H]4[C@H](O)[C@@H](O)[C@H](O[C@H]5[C@H](O)[C@@H](CO)O[C@@H](O[C@H]6[C@H](O)[C@@H](O)[C@H](O[C@@H]([C@H](O)[C@H](O)CO)[C@H](CNc7ccc(C(=O)O)cc7)NC(C)=O)O[C@@H]6C(=O)O)[C@@H]5NC(C)=O)O[C@@H]4C(=O)O)[C@@H]3NC(C)=O)O[C@@H]2C(=O)O)O[C@H](CO)[C@@H](O)[C@@H]1O[C@@H]1O[C@H](C(=O)O)[C@@H](O)[C@H](O)[C@H]1O [HA8-4AA] | Yes | somewhat weaker substrate than HA8^AN | 0.86 ± 0.02 | -8.37 ± 0.04 | -11.53 ± 0.25 | 3.17 ± 0.26 | 
4 | CC(=O)N[C@H]1[C@H](O[C@H]2[C@H](O)[C@@H](O)[C@H](O[C@H]3[C@H](O)[C@@H](CO)O[C@@H](O[C@H]4[C@H](O)[C@@H](O)[C@H](O[C@@H]([C@H](O)[C@H](O)CO)[C@H](CNc5ccccc5C(=O)O)NC(C)=O)O[C@@H]4C(=O)O)[C@@H]3NC(C)=O)O[C@@H]2C(=O)O)O[C@H](CO)[C@@H](O)[C@@H]1O[C@@H]1O[C@H](C(=O)O)[C@@H](O)[C@H](O)[C@H]1O [HA6-2AA] | Yes | good substrates; also recorded: could become covalently coupled to an HC | 1.03 ± 0.02 | -8.50 ± 0.04 | -7.84 ± 0.43 | -0.66 ± 0.41 | 
5 | CC(=O)N[C@H]1[C@H](O[C@H]2[C@H](O)[C@@H](O)[C@H](O[C@H]3[C@H](O)[C@@H](CO)O[C@@H](O[C@H]4[C@H](O)[C@@H](O)[C@H](O[C@H]5[C@H](O)[C@@H](CO)O[C@@H](O[C@H]6[C@H](O)[C@@H](O)[C@H](O[C@@H]([C@H](O)[C@H](O)CO)[C@H](CNc7ccccc7C(=O)O)NC(C)=O)O[C@@H]6C(=O)O)[C@@H]5NC(C)=O)O[C@@H]4C(=O)O)[C@@H]3NC(C)=O)O[C@@H]2C(=O)O)O[C@H](CO)[C@@H](O)[C@@H]1O[C@@H]1O[C@H](C(=O)O)[C@@H](O)[C@H](O)[C@H]1O [HA8-2AA] | Yes | retained full activity as substrates | 1.06 ± 0.03 | -7.83 ± 0.13 | -12.55 ± 0.59 | 4.69 ± 0.73 | 
6 | CC(=O)N[C@H]1[C@H](O[C@H]2[C@H](O)[C@@H](O)[C@H](O[C@H]3[C@H](O)[C@@H](CO)O[C@@H](O[C@H]4[C@H](O)[C@@H](O)[C@H](O[C@@H]([C@H](O)[C@H](O)CO)[C@H](CNc5ccc(C(=O)O)cc5)NC(C)=O)O[C@@H]4C(=O)O)[C@@H]3NC(C)=O)O[C@@H]2C(=O)O)O[C@H](CO)[C@@H](O)[C@@H]1O[C@@H]1O[C@H](C(=O)O)[C@@H](O)[C@H](O)[C@H]1O [HA6-4AA] | Yes | weak substrates | 1.02 ± 0.05 | -8.40 ± 0.08 | -7.57 ± 0.26 | -0.83 ± 0.34 | 
7 | CC(=O)N[C@H]1[C@H](O[C@H]2[C@H](O)[C@@H](O)[C@H](O[C@H]3[C@H](O)[C@@H](CO)O[C@@H](O[C@H]4[C@H](O)[C@@H](O)[C@H](O[C@H]5[C@H](O)[C@@H](CO)O[C@@H](O[C@H]6[C@H](O)[C@@H](O)[C@H](O[C@@H]([C@H](O)[C@H](O)CO)[C@H](CNc7cccc(C(=O)O)c7)NC(C)=O)O[C@@H]6C(=O)O)[C@@H]5NC(C)=O)O[C@@H]4C(=O)O)[C@@H]3NC(C)=O)O[C@@H]2C(=O)O)O[C@H](CO)[C@@H](O)[C@@H]1O[C@@H]1O[C@H](C(=O)O)[C@@H](O)[C@H](O)[C@H]1O [HA8-3AA] | Yes |  | 1.05 ± 0.03 | -8.95 ± 0.13 | -8.53 ± 0.33 | -0.60 ± 0.09 | 
8 | CC(=O)N[C@H]1[C@H](O[C@H]2[C@H](O)[C@@H](O)[C@H](O[C@@H]([C@H](O)[C@H](O)CO)[C@H](CNc3cccc(C(=O)O)c3)NC(C)=O)O[C@@H]2C(=O)O)O[C@H](CO)[C@@H](O)[C@@H]1O[C@@H]1O[C@H](C(=O)O)[C@@H](O)[C@H](O)[C@H]1O [HA4-3AA] | No |  |  |  |  |  | % of binding to hisCD44_HABD^20–169 compared to the unmodified oligosaccharide of the same length (hisCD44_HABD^20–169; MST): 260%; % HAn^AN: percentage of binding affinity (KB) compared to the unmodified oligosaccharide of the same length (hisCD44_HABD^20–169; Table 2, MST): 260%; Kd (hisCD44_HABD^20–169; Table 2, MST, mean (±SD)): 845 µM; % Binding affinity hisCD44_HABD^20–169 (hisCD44_HABD^20–169): 260%
